These results are taken from patent publication US6916812B2, “Alpha-aminoamide derivatives as melanocortin agonists” (Bristol-Myers Squibb Company, priority 2001, dated 2005).

This assay addresses T1, cloned human MC4R (Homo sapiens, UniProt P32245).
T1 construct: made in house; host or cells: Hi5 insect cells (baculovirus infection); membrane preparation
As to the kind of experiment: Membrane binding assay: competitive inhibition of [125I]NDP-α-MSH binding. Particulars: for inhibition at 10 µM: read-out: Displacement Rate (%) (at 10 μM); for IC50: read-out: MC4R IC50.

Setting [1] is: at 10 μM, [125I]NDP-α-MSH displacement.

Read-outs that look alike come from different tables or passages of the source.

T1 sequence (P32245 whole entry): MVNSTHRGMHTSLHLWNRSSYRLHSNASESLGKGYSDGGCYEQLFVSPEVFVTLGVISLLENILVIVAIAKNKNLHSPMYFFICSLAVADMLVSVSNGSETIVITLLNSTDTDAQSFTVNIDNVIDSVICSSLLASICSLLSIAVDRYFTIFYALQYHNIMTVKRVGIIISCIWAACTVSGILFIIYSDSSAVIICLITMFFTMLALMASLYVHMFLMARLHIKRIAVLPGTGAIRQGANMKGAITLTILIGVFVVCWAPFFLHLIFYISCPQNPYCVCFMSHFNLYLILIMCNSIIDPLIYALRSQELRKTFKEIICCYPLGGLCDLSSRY

Turning to `N[C@@H](Cc1ccc(OCc2ccccc2)cc1)C(=O)N1CCN(Cc2ccc(N(c3ccccc3)c3ccccc3)cc2)CC1` [Example 91], the IC50 (usually the midpoint of a concentration-inhibition curve) is below 1.5 µM. The inhibition at 10 µM under setting [1] lay in the range of 91 to 100%. Taken in the same sequence, the figures for `N[C@@H](Cc1ccc(OCc2ccccc2)cc1)C(=O)N1CCN(Cc2ccc(OCc3ccc([N+](=O)[O-])cc3)cc2)CC1` [Example 110] were below 1.5 µM and 71 to 90%. `CCCCc1ccc(CN2CCCN(C(=O)[C@@H](N)Cc3ccc(OCc4ccccc4)cc3)CC2)cc1` [Example 35]: the IC50 lay within 1.5 to 3 µM. Further, under setting [1], the inhibition at 10 µM was 71 to 90%. Consider `N[C@@H](Cc1ccc(OCc2ccccc2)cc1)C(=O)N1CCN(Cc2ccc(Br)cc2)CC1` [Example 129], for which the IC50 is above 3 µM. The inhibition at 10 µM under setting [1] fell in the range of 35 to 70%.

With `N[C@@H](Cc1ccc(OCc2ccccc2)cc1)C(=O)N1CCN(Cc2cccc(C(F)(F)F)c2)CC1` [Example 123], the IC50 is above 3 µM. Moreover, the inhibition at 10 µM under setting [1] lay within 71 to 90%. Regarding `N[C@@H](Cc1ccc(OCc2ccccc2)cc1)C(=O)N1CCCN(Cc2c3ccccc3cc3ccccc23)CC1` [Example 20], the inhibition at 10 µM was 91 to 100% and the IC50 is above 3 µM. As for `CCCCCCCCOc1ccc(CN2CCCN(C(=O)[C@@H](N)Cc3ccc(OCc4ccccc4)cc3)CC2)cc1` [Example 14], the IC50 was below 1.5 µM. Under setting [1], the inhibition at 10 µM was in the range of 91 to 100%.

`N[C@@H](Cc1ccc(OCc2ccccc2)cc1)C(=O)N1CCN(Cc2cccc3ccccc23)CC1` [Example 127]: the inhibition at 10 µM under setting [1] was in the range of 71 to 90%. Take `N[C@@H](Cc1ccc(OCc2ccccc2)cc1)C(=O)N1CCN(Cc2c(F)cccc2Cl)CC1` [Example 140]: the IC50 is above 3 µM. Moreover, the inhibition at 10 µM under setting [1] was in the range of 35 to 70%. For `N[C@@H](Cc1ccc(OCc2ccc(Br)cc2)cc1)C(=O)N1CCN(Cc2cccc(Cl)c2Cl)CC1` [Example 186], the IC50 was below 1.5 µM. In addition, the “Displacement Rate (%) (at 10 μM)” value under setting [1] is listed as “+++ (+++ = 91-100)”. For `N[C@@H](Cc1ccc(-c2cccc(Cl)c2Cl)cc1)C(=O)N1CCN(Cc2cccc(Cl)c2Cl)CC1` [Example 299], the IC50 is below 1.5 µM. For the same compound, the inhibition at 10 µM under setting [1] is 91 to 100%. Taken in the same sequence, the figures for `CC(COc1ccccc1)N1CCCN(C(=O)[C@@H](N)Cc2ccc(OCc3ccccc3)cc2)CC1` (some centres unmarked) [Example 49] were above 3 µM and 35 to 70%. In the same order, the values of `N[C@@H](Cc1ccc(OCc2ccccc2)cc1)C(=O)N1CCN(Cc2c(F)cccc2F)CC1` [Example 142] are above 3 µM and 35 to 70%. Taken in the same sequence, the figures for `CCn1c2ccccc2c2cc(CN3CCCN(C(=O)[C@@H](N)Cc4ccc(OCc5ccccc5)cc4)CC3)ccc21` [Example 3] were below 1.5 µM and 91 to 100%. For the compound `COc1ccc(COc2ccc(C[C@H](N)C(=O)N3CCN(Cc4cccc(Cl)c4Cl)CC3)cc2)cc1` [Example 225], the IC50 is above 3 µM. Also, the “Displacement Rate (%) (at 10 μM)” value under setting [1] is “++ (++ = 71-90)”. Consider `N[C@@H](Cc1ccc(OCc2ccccc2)cc1)C(=O)N1CCCN(CCCc2ccccc2)CC1` [Example 42], for which the IC50 is above 3 µM. For the same compound, under setting [1], the inhibition at 10 µM was in the range of 71 to 90%. `N[C@@H](Cc1ccc(OCCCc2ccccc2)cc1)C(=O)N1CCN(Cc2cccc(Cl)c2Cl)CC1` [Example 261]: the IC50 was below 1.5 µM. For the same compound, the “Displacement Rate (%) (at 10 μM)” value under setting [1] was “+++ (+++ = 91-100)”. Consider `CCOc1ccccc1CN1CCCN(C(=O)[C@@H](N)Cc2ccc(OCc3ccccc3)cc2)CC1` [Example 50], for which the IC50 is above 3 µM. Besides, the inhibition at 10 µM under setting [1] was 35 to 70%. Regarding `CCOc1ccc(COc2ccc(C[C@H](N)C(=O)N3CCN(Cc4cccc(Cl)c4Cl)CC3)cc2)cc1` [Example 209], the IC50 lay within 1.5 to 3 µM. Besides, under setting [1], the inhibition at 10 µM was in the range of 91 to 100%.

With `N[C@@H](Cc1ccc(OCc2ccccc2)cc1)C(=O)N1CCCN(Cc2ccc(Oc3ccccc3)cc2)CC1` [Example 33], the IC50 lay within 1.5 to 3 µM. In addition, under setting [1], the inhibition at 10 µM was in the range of 71 to 90%. Consider `N[C@@H](Cc1ccc(OCc2ccccc2)cc1)C(=O)N1CCCN(Cc2ccc(Cl)cc2Cl)CC1` [Example 52], for which the IC50 is above 3 µM. The inhibition at 10 µM under setting [1] was in the range of 35 to 70%. With `CC(CCOc1ccc(C[C@H](N)C(=O)N2CCN(Cc3cccc(Cl)c3Cl)CC2)cc1)c1ccccc1` (some centres unmarked) [Example 263], the 50% inhibitory concentration (IC50) is below 1.5 µM. For the same compound, the “Displacement Rate (%) (at 10 μM)” value under setting [1] is reported as “+++ (+++ = 91-100)”. In the case of `N[C@@H](Cc1ccc(-c2cnc3ccccc3c2)cc1)C(=O)N1CCN(Cc2cccc(Cl)c2Cl)CC1` [Example 341], the inhibition at 10 µM lay in the range of 71 to 90% and the IC50 lay within 1.5 to 3 µM. `N[C@@H](Cc1ccc(OCc2ccccc2)cc1)C(=O)N1CCCN(Cc2ccc(C(F)(F)F)cc2)CC1` [Example 25]: the IC50 is below 1.5 µM. In addition, under setting [1], the inhibition at 10 µM lay in the range of 91 to 100%.

For the compound `N[C@@H](Cc1ccc(OCc2ccccc2)cc1)C(=O)N1CCN(Cc2ccc(F)cc2F)CC1` [Example 153], the IC50 is above 3 µM. Besides, the inhibition at 10 µM under setting [1] lay in the range of 35 to 70%. `Cc1ccc(CCOc2ccc(C[C@H](N)C(=O)N3CCN(Cc4cccc(Cl)c4Cl)CC3)cc2)cc1` [Example 239]: the IC50 was below 1.5 µM. Besides, under setting [1], the “Displacement Rate (%) (at 10 μM)” value is reported as “+++ (+++ = 91-100)”. For the compound `COc1ccc(COc2ccc(C[C@H](N)C(=O)N3CCN(Cc4cccc(Cl)c4Cl)CC3)cc2)cc1OC` [Example 234], the IC50 was above 3 µM. Further, under setting [1], the “Displacement Rate (%) (at 10 μM)” value was “+ (+ = 35-70)”. Regarding `N[C@@H](Cc1ccc(OCc2ccccc2)cc1)C(=O)N1CCCN(C2CCN(CCc3ccccc3)CC2)CC1` [Example 68], the IC50 was above 3 µM. Also, under setting [1], the inhibition at 10 µM fell in the range of 35 to 70%.

For the compound `N[C@@H](Cc1ccc(-c2ccc(C(F)(F)F)cc2)cc1)C(=O)N1CCN(Cc2cccc(Cl)c2Cl)CC1` [Example 304], the concentration for half-maximal inhibition (IC50) was below 1.5 µM. Further, the inhibition at 10 µM under setting [1] fell in the range of 91 to 100%.

Turning to `N[C@@H](Cc1ccc(-c2ccc(C(=O)O)cc2)cc1)C(=O)N1CCN(Cc2cccc(Cl)c2Cl)CC1` [Example 329], the IC50 is above 3 µM. Further, under setting [1], the inhibition at 10 µM is 71 to 90%. For the compound `N[C@@H](Cc1ccc(-c2cc3ccccc3s2)cc1)C(=O)N1CCN(Cc2cccc(Cl)c2Cl)CC1` [Example 338], the inhibition at 10 µM was 91 to 100% and the IC50 is below 1.5 µM. As to `COc1cc(OC)c(CN2CCN(C(=O)[C@@H](N)Cc3ccc(OCc4ccccc4)cc3)CC2)cc1Br` [Example 130], the IC50 was above 3 µM. Also, the inhibition at 10 µM under setting [1] lay within 35 to 70%. In the same order, the values of `N[C@@H](Cc1ccc(-c2ccc(Cl)cc2)cc1)C(=O)N1CCN(Cc2cccc(Cl)c2Cl)CC1` [Example 298] are below 1.5 µM and 91 to 100%. For `N[C@@H](Cc1ccc(OCc2ccccc2)cc1)C(=O)N1CCN(Cc2cccc(OCc3ccccc3)c2)CC1` [Example 85], the IC50 is below 1.5 µM. Further, under setting [1], the inhibition at 10 µM lay within 91 to 100%. Consider `CC(C)(C)c1ccc(COc2ccc(C[C@H](N)C(=O)N3CCN(Cc4cccc(Cl)c4Cl)CC3)cc2)cc1` [Example 201], for which the IC50 was below 1.5 µM. Under setting [1], the “Displacement Rate (%) (at 10 μM)” value is on record as “+++ (+++ = 91-100)”. In the case of `N[C@@H](Cc1ccc(OCc2ccccc2C(F)(F)F)cc1)C(=O)N1CCN(Cc2cccc(Cl)c2Cl)CC1` [Example 182], the half-inhibitory concentration (IC50) was below 1.5 µM. Besides, under setting [1], the “Displacement Rate (%) (at 10 μM)” value is “+++ (+++ = 91-100)”. Regarding `N[C@@H](Cc1ccc(OCc2ccccc2)cc1)C(=O)N1CCCN(CC2CCCCC2)CC1` [Example 53], the half-inhibitory concentration (IC50) was above 3 µM. For the same compound, the inhibition at 10 µM under setting [1] was 35 to 70%. With `CCOc1ccc(CN2CCCN(C(=O)[C@@H](N)Cc3ccc(OCc4ccccc4)cc3)CC2)c(OCC)c1C` [Example 24], the IC50 was below 1.5 µM. For the same compound, the inhibition at 10 µM under setting [1] was 91 to 100%. In the same order, the values of `N[C@@H](Cc1ccc(OCc2ccccc2)cc1)C(=O)N1CCCN(Cc2cc3c(cc2[N+](=O)[O-])OCO3)CC1` [Example 77] are above 3 µM and 35 to 70%.

Consider `N[C@@H](Cc1ccc(OCc2ccccc2)cc1)C(=O)N1CCCN(CC(c2ccccc2)c2ccccc2)CC1` [Example 23], for which the IC50 was above 3 µM. The inhibition at 10 µM under setting [1] lay within 91 to 100%.

As for `N[C@@H](Cc1ccc(-c2ccccc2)cc1)C(=O)N1CCN(Cc2cccc(Cl)c2Cl)CC1` [Example 289], the IC50 is below 1.5 µM.

`N[C@@H](Cc1ccc(OCCc2cccc(Br)c2)cc1)C(=O)N1CCN(Cc2cccc(Cl)c2Cl)CC1` [Example 248]: the IC50 is below 1.5 µM. Besides, under setting [1], the “Displacement Rate (%) (at 10 μM)” value is given as “+++ (+++ = 91-100)”. For the compound `N[C@@H](Cc1ccc(OCc2ccccc2)cc1)C(=O)N1CCCN(Cc2cc3c(cc2Cl)OCO3)CC1` [Example 71], the inhibition at 10 µM fell in the range of 35 to 70% and the IC50 is above 3 µM. For `N[C@@H](Cc1ccc(OCc2ccccc2)cc1)C(=O)N1CCN(Cc2ccc(C(F)(F)F)cc2C(F)(F)F)CC1` [Example 98], the IC50 is 1.5 to 3 µM. Moreover, the inhibition at 10 µM under setting [1] lay within 91 to 100%. As for `N[C@@H](Cc1ccc(OCc2ccc3c(c2)OCO3)cc1)C(=O)N1CCN(Cc2cccc(Cl)c2Cl)CC1` [Example 235], the IC50 was above 3 µM. Further, the “Displacement Rate (%) (at 10 μM)” value under setting [1] is “+ (+ = 35-70)”.

`CCOc1ccc(CN2CCN(C(=O)[C@@H](N)Cc3ccc(OCc4ccccc4)cc3)CC2)c(OCC)c1C` [Example 104]: the IC50 fell in the range of 1.5 to 3 µM. The inhibition at 10 µM under setting [1] lay within 91 to 100%.

`N[C@@H](Cc1ccc(OCc2ccccc2)cc1)C(=O)N1CCN(Cc2ccccc2)CC1` [Example 141]: the IC50 is above 3 µM. Further, under setting [1], the inhibition at 10 µM was in the range of 35 to 70%. In the same order, the values of `N[C@@H](Cc1ccc(OCc2ccccc2)cc1)C(=O)N1CCN(Cc2ccc3c(c2)OCCO3)CC1` [Example 156] are above 3 µM and 35 to 70%. In the case of `N[C@@H](Cc1ccc(OCc2ccccc2)cc1)C(=O)N1CCCN(Cc2ccccc2C(F)(F)F)CC1` [Example 22], the IC50 is above 3 µM. For the same compound, the inhibition at 10 µM under setting [1] was in the range of 91 to 100%. Taken in the same sequence, the figures for `COc1ccc2ccccc2c1CN1CCCN(C(=O)[C@@H](N)Cc2ccc(OCc3ccccc3)cc2)CC1` [Example 43] were 1.5 to 3 µM and 71 to 90%.
